# Values quoted from earlier work in patent US8486426B2, “Methods and compositions for treatment of dermal conditions” (Kimberly-Clark Worldwide, Inc., priority 2002, dated 2013).
# What was measured:
# [1] = tested on: onychomycosis; conditions: for Clinical cure rate: total dystrophic onychomycosis (TDO), oral drug
# [2] = for deaths among liver failure cases: reported by/through 2001
# [3] = in vivo
# [4] = tested on: dermatophytes, yeast and molds that typically cause onychomycosis
compound,measurement,setting,value
"CN(C/C=C/C#CC(C)(C)C)Cc1cccc2ccccc12 [TERBINAFINE, terbinafine]",Clinical cure rate,[1],37%
same,cases of liver failure reported,[2]; in vivo,16 cases
same,liver transplants reported,[2]; in vivo,2 liver transplants
same,deaths among liver failure cases,[2],11 deaths
same,persistence after treatment,[3],several months
same,time at which detectable in the nail bed,[3],one week
"Cc1cc(C2CCCCC2)n(O)c(=O)c1 [PENLAC, ciclopirox olamine]",cure rate,"[1]; mild to moderate DLSO, average 40% of nail involved, no matrix infection, topical",7%
same,in vitro action on fungi,[4],fungicidal
"CCC(C)(C)c1ccc(CC(C)CN2C[C@@H](C)O[C@@H](C)C2)cc1 (some centres unmarked) [LOCERYL, amorolfine]",effective in share of the cases,"[1]; mild onychomycosis with no matrix involvement, topical 5% solution",about 40%
OC(Cn1cncn1)(Cn1cncn1)c1ccc(F)cc1F [fluconazole],Clinical cure rate,[1],about 38%
"CCC(C)n1ncn(-c2ccc(N3CCN(c4ccc(OCC5COC(Cn6cncn6)(c6ccc(Cl)cc6Cl)O5)cc4)CC3)cc2)c1=O (centres unmarked) [SPORANOX, itraconazol]",deaths among pulmonary edema cases,[2]; as of 2001,13 deaths
same,cases of liver failure reported,[2]; in vivo,24 cases
same,cases of pulmonary edema (probable association),[2]; in vivo,58 cases
same,deaths among liver failure cases,[2],11 deaths
